Experiment: Aqueous partition value of a dye (water/1-octanol partitioning)
Type: physicochemical
Settings: deionized water / 1-octanol 10.0 mL each, absorbance at dye λmax, (Af/Ai)×100%
Procedure: Dissolve in deionized water to a final volume of 10.0 mL an amount of dye sufficient to provide a solution absorbance value between 0.25 and 1.0, said absorbance being determined at the dye λmax between 400 nm and 750 nm, using a cuvette with 1.0 cm path length. Measure the absorbance of the sample at the dye λmax in a UV/Vis spectrophotometer, then transfer the entire 10.0 mL solution to a 50.0 mL plastic centrifuge tube. Add 10.0 mL of 1-octanol, cap the tube, and mix vigorously for 30 seconds using a Vortex™ mixer. Leave the tube standing undisturbed until the layers cleanly phase separate.
Using a transfer pipette, withdraw an aliquot of the aqueous (bottom) layer and transfer it to a cuvette with 1.0 cm path length for spectrophotometric analysis. Analyze the solution as before, and quantify the absorbance loss at λmax as “% of Dye Remaining in Aqueous Layer” as detailed below: % of Dye Remaining in Aqueous Layer=Aqueous Partition Value (APV)=(Af/Ai)×100% wherein Ai is the initial solution absorbance at λmax and Af is the final solution absorbance at λmax. II. Method for Determining Hueing Efficiency for Detergents • a.) Two 25 cm×25 cm fabric swatches of 16 oz white cotton interlock knit fabric (270 g/square meter, brightened with Uvitex BNB fluorescent whitening agent, from Test Fabrics. P.O. Box 26, Weston, Pa., 18643) are obtained. • b.) Prepare two one liter aliquots of tap water containing 1.55 g of AATCC standard heavy duty liquid (HDL) test detergent. • c.) Add a sufficient amount the dye to be tested to one of the aliquots from Step b.) above to produce an aqueous solution absorbance of 1 AU. • d.) Wash one swatch from a.) above in one of the aliquots of water containing 1.55 g of AATCC standard heavy duty liquid (HDL) test detergent and wash the other swatch in the other aliquot. Such washing step should be conducted for 30 minutes at room temperature with agitation. After such washing step separately rinse the swatches in tap water and air dry the swatches in the dark. • e.) After rinsing and drying each swatch, the hueing efficiency, DE*eff, of the dye is assessed by determining the L*, a*, and b* value measurements of each swatch using a Hunter LabScan XE reflectance spectrophotometer with D65 illumination, 10° observer and UV filter excluded. The hueing efficiency of the dye is then calculated using the following equation: DE*eff=((L*c−Ls)^2+(a*c−a*s)^2+(b*c−b*s)^2)^1/2 • wherein the subscripts c and s respectively refer to the L*, a*, and b* values measured for the control, i.e., the fabric sample washed in detergent with no dye, and the fabric sample washed in detergent containing the dye to be screened. III. Method for Determining Wash Removability • a.) Prepare two separate 150 ml aliquots of HDL detergent solution, according to AATCC Test Method 61-2003, Test 2A and containing 1.55 g/liter of the AATCC HDL formula in distilled water. • b.) A 15 cm×5 cm sample of each fabric swatch from the Method for Determining of Hueing Efficiency For Detergents described above is washed in a Launderometer for 45 minutes at 49° C. in 150 ml of a the HDL detergent solution prepared according to Step 11. a.) above. • c.) The samples are rinsed with separate aliquots of rinse water and air dried in the dark, and then L*, a*, and b* value measurements of each swatch are taken using a Hunter LabScan XE reflectance spectrophotometer with D65 illumination, 10° observer and UV filter excluded. The amount of residual coloration is assessed by measuring the DE*res, calculated using the following equation: DE*res=((L*c−L*s)^2+(a*c−a*s)^2+(b*c−b*s)^2)^1/2 • wherein the subscripts c and s respectively refer to the L*, a*, and b* values measured for the control, i.e., the fabric sample initially washed in detergent with no dye, and the fabric sample initially washed in detergent containing the dye to be screened. The wash removal value for the dye is then calculated according to the formula: % removal=100×(1−DE*res/DE*eff) C. Test Results […]

Row | Compound | % Dye in Water Layer (Aqueous Partition Value) [%]
1 | CC[N+](CC)(CC)CCOCCOCCN(CCOCC[N+](CC)(CC)CC)c1cc(OC)c(/N=N/c2sc(C#N)c(C)c2C#N)cc1OC [Example 19] | 78
2 | CC[N+](CC)(CC)CCN(CC[N+](CC)(CC)CC)c1ccc(/N=N/c2sc(C#N)c(C)c2C#N)c(C)c1 [Example 36] | 94
3 | CCN(CCOCCOCCOCCOCCn1cc[n+](C)c1)c1ccc(/N=N/c2sc(C#N)c(C)c2C#N)c(C)c1 [Example 13] | 20
4 | Cc1cc(N(CCn2cc[n+](C)c2)CCn2cc[n+](C)c2)ccc1/N=N/c1sc(C#N)c(C)c1C#N [Example 2] | 83
5 | CC[N+](CC)(CC)CCOCCOCCN(CCOCC[N+](CC)(CC)CC)c1cc(C)c(/N=N/c2sc(C#N)c(C)c2C#N)cc1OC [Example 18] | 49
6 | CCN(CCOCCOCCOCCOCC[N+](CC)(CC)CC)c1ccc(/N=N/c2sc(C#N)c(C)c2C#N)c(C)c1 [Example 12] | 15
7 | CC[N+](CC)(CC)CCOCCOCCN(CCOCC[N+](CC)(CC)CC)c1ccc(/N=N/c2sc(C#N)c(C)c2C#N)c(C)c1 [Example 35] | 66
8 | CCN(CC[N+](CC)(CC)CC)c1ccc(/N=N/c2sc(C#N)c(C)c2C#N)c(C)c1 [Example 7] | 15
9 | COc1cc(/N=N/c2sc(C#N)c(C)c2C#N)c(C)cc1N(CCn1cc[n+](C)c1)CCn1cc[n+](C)c1 [Example 1] | 97
10 | COc1cc(/N=N/c2sc(C#N)c(C)c2C#N)c(C)cc1N(CCOCCOCC[N+](CCO)(CCO)CCO)CCOCC[N+](CCO)(CCO)CCO [Example 22] | 56
11 | COc1cc(/N=N/c2sc(C#N)c(C)c2C#N)c(C)cc1N(CCOCCOCC[N+](C)(C)CCO)CCOCC[N+](C)(C)CCO [Example 21] | 75
